Laboratory results from US20140038181A1, “CHEMICALLY SUBSTITUTED THERMOSENSITIVE PROBES AND COFACTORS FOR HOT START LIGATION” (TRILINK BIOTECHNOLOGIES, priority 2011, published 2014).
In the oligonucleotide strings, read from the 5' end, every base follows the letter of its sugar. An asterisk marks phosphorothioate; unmarked linkages are phosphodiester. Other units and linkages are bracketed, terminal groups are in braces. A string of capitals states the bases alone. [OXT] = OXT-substituted phosphotriester internucleotide linkage; d = 2'-deoxy (DNA)

Experiments:
[1] = system: complementary DNA target sequence; assay: UV-melting temperature of complexes of acceptor probes with complementary DNA target sequence; format: physicochemical; conditions: 2 μM oligonucleotides; for Tm: NaCl 137 mM, KCl 2.7 mM, phosphate buffer pH 7.4, 260 nm; for ΔTm (PDE - PTE): versus unsubstituted acceptor probe, pH 7.4
[2] = Thermal conversion of 2′,3′-substituted ATP to unsubstituted ATP in ligase buffer at 95° C. (HPLC); format: physicochemical; conditions: 1 mM 2′,3′-substituted ATP
Experimental: The reactions were monitored by analysis of the aliquot of incubated mixture by reverse-phase and anion-exchange HPLC.

[3] = target: Tth DNA ligase (Thermus thermophilus, UniProt P26996); assay: Ligase reaction with OXT-SAP and unsubstituted NAD+ cofactor on matched and mismatched DNA template, PAGE analysis; format: biochemical
Sequence of Tth DNA ligase (P26996 whole entry): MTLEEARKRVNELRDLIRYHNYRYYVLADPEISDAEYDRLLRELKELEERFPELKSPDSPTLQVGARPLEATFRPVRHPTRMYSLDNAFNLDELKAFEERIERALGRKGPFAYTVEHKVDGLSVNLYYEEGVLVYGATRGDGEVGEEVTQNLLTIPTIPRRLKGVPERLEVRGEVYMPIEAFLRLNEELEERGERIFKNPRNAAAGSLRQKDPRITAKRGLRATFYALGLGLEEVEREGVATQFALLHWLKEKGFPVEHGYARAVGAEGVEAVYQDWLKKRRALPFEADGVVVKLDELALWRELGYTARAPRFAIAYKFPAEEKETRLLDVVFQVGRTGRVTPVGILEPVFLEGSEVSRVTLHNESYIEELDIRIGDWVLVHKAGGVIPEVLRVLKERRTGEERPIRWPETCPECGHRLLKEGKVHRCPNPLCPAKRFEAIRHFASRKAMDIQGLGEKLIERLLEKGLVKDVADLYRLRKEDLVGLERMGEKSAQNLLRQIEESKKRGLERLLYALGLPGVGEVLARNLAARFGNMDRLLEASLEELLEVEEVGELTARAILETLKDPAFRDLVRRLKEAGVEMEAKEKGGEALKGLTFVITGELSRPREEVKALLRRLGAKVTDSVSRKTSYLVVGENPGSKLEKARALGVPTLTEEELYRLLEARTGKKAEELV
Experimental: The ability of Tth DNA ligase to join an OXT-substituted acceptor and donor probes was assessed on a matched and mismatched DNA template in the presence of NAD+ cofactor (see Table 3 for the sequences employed). Each 20 μL reaction was performed in ligase buffer containing 50 mM Tris-HCl (pH 7.5), 10 mM MgCl2, 10 mM dithiothreitol, 25 μg/ml bovine serum albumin and 1 mM NAD+. The OXT-SAP, unsubstituted donor probe and DNA template were at equimolar 0.1 μM concentration. To prevent premature uncontrollable cleavage of the OXT groups from OXT-SAP, the preparation of the ligation mixture was performed in three steps.
First, a binary template-donor complex was prepared by mixing the DNA template and donor strands in ligation buffer, heating the mixture at 95° C. for 2 min, slowly cooling to 4° C. over 15 min, and keeping mixture at 4° C. for 1 hour.
Second, the OXT-SAP was added to the mixture and allowed to stay at 4° C. for 12 hours.
Third, a solutions of NAD+ in ligation buffer was added and ligation was initiated by adding 2 units of Tth DNA ligase to reaction mixture. Ligation proceeded at room temperature for 1 hr and analyzed by PAGE on TBE-Urea denaturing 15% gel (FIG. 12).

[4] = target: T1, T4 DNA ligase (Enterobacteria phage T4, UniProt P00970); format: biochemical, bacteriophage T4
T1 construct: purchased New England Biolabs
T1 sequence (P00970 whole entry, looked up): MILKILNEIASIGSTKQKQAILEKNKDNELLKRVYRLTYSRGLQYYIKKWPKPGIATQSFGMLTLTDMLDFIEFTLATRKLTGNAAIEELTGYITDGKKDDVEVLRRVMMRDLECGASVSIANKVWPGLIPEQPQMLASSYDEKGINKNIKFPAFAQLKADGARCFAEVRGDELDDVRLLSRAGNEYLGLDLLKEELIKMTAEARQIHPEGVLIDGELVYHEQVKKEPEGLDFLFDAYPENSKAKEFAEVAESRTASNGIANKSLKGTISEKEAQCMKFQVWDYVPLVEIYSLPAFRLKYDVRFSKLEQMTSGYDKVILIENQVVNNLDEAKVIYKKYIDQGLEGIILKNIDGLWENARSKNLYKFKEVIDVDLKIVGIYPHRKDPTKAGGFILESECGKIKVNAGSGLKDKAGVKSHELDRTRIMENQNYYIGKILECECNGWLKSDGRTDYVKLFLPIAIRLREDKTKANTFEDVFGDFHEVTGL

Compound “Unsubstituted: TACTATGGTCCACACAACTATTGCT (Table 7 acceptor probe) (DNA TACTATGGTCCACACAACTATTGCT; acceptor probe, label not given here) [reference compound]” has a Tm [1] of 68.9 °C.

In the case of “Double OXT12: TACTATGGTCCACACAACTATTG(OXT)C (OXT)T (DNA dTdAdCdTdAdTdGdGdTdCdCdAdCdAdCdAdAdCdTdAdTdTdG[OXT]dC[OXT]dT)”, the Tm [1] is reported as 66.2 °C and the “ΔTm (PDE - PTE)” value [1] is reported as −2.6 °C.

With `Nc1ncnc2c1ncn2[C@@H]1O[C@H](COP(=O)(O)OP(=O)(O)OP(=O)(O)O)[C@@H](OC2CCCO2)[C@H]1OC1CCCO1` (stereo partly shown) [—O(THF), 2′,3′-O-bis-tetrahydrofuranyl-adenosine-5′triphosphates] the “Concentration of unsubstituted ATP” value ([2]; ligase buffer pH 7.5, 5 min) was 2.8 µM, the “Concentration of unsubstituted ATP” value ([2]; ligase buffer pH 7.5, 10 min) was 4.6 µM and the “Concentration of unsubstituted ATP” value ([2]; ligase buffer pH 7.5, 20 min) was 17.3 µM. The “Concentration of unsubstituted ATP” value ([2]; ligase buffer pH 7.5, 45 min) was 72.7 µM and the “Concentration of unsubstituted ATP” value ([2]; ligase buffer pH 7.5, 80 min) was 182.2 µM.

For “Single OXT2: TACTATGGTCCACACAACTATTG(OXT)C T (DNA dTdAdCdTdAdTdGdGdTdCdCdAdCdAdCdAdAdCdTdAdTdTdG[OXT]dCdT)”, the Tm [1] was 66.6 °C and the “ΔTm (PDE - PTE)” value [1] was −2.3 °C.

In the case of “unsubstituted acceptor probe: CCCTGTTCCAGCGTCGGTGTTGCGTT (Table 3) (unmodified DNA)”, the “formation of ligation product” value ([3]; matched template, additionally incubated 1 h at 75° C.) is reported as “ample formation of ligation product”, the “formation of ligation product” value ([3]; matched template, room temperature, 1 hr) is reported as “efficient formation of ligation product” and the “formation of ligation product” value ([3]; mismatched DNA template, 120 hrs of incubation) is reported as “a small amount of ligation product was formed”. The “formation of ligation product” value ([3]; mismatched DNA template, 120 hrs, additionally incubated 1 h at 75° C.) was “substantial accumulation of ligation product”.

For “Double OXT23: TACTATGGTCCACACAACTATT(OXT)G(OXT)C T (DNA dTdAdCdTdAdTdGdGdTdCdCdAdCdAdCdAdAdCdTdAdTdT[OXT]dG[OXT]dCdT)”, the Tm [1] was 65.4 °C and the “ΔTm (PDE - PTE)” value [1] was −3.5 °C.

In the case of “Single OXT1: TACTATGGTCCACACAACTATTGC (OXT)T (DNA dTdAdCdTdAdTdGdGdTdCdCdAdCdAdCdAdAdCdTdAdTdTdGdC[OXT]dT)”, the Tm [1] is reported as 67.5 °C and the “ΔTm (PDE - PTE)” value [1] is reported as −1.4 °C.

For `Nc1ncnc2c1ncn2[C@@H]1O[C@H](COP(=O)(O)OP(=O)(O)OP(=O)(O)O)[C@@H](O)[C@H]1O` [unsubstituted ATP, ATP], the “formation of ligation product” value [4] was “ample formation of 80(+)-mer ligation product”.
